According to PMC8448163 (Antimicrobial Agents and Chemotherapy, 2021):
“And” between values parts separate entries of the source, which are not always exact repeats. Equal values may be shown once. Read-outs that look alike come from different tables or passages of the source.

Key:
[1] = system: healthy adult volunteers; assay: Phase 1 SAD study, safety and tolerability
[2] = system: healthy adult volunteers; assay: Phase 1 MAD study, safety and tolerability
[3] = in vivo; settings: dog, po
[4] = system: ECV-11 isolates; assay: organism not typed; assay type: cell-based; settings: read-out: EC50, range
[5] = for mean and individual trough concentrations: LLOQ 1.00 ng/ml; for time of peak of mean plasma concentration: MAD BID
[6] = clinical; settings: human, in vivo
[7] = system: poliovirus; settings: in vitro, in combination with capsid inhibitors including pocapavir; cited from earlier work
[8] = healthy adult males (n = 14), single oral doses 200 mg to 2,000 mg; cited from earlier work
[9] = clinical; settings: human, in vivo; remark: listed apart in the source
[10] = in vitro
[11] = in vivo; settings: rat, po
[12] = system: EV panel comprising 47 PV strains and 36 nonpolio EV strains; assay: microbe, parasite or virus in culture; assay type: cell-based; settings: Enterovirus, read-out: EC50, mean
[13] = system: CV-A16; assay: microbe, parasite or virus in culture; assay type: cell-based; settings: Enterovirus A, CVA16
[14] = MAD, one participant, 2,000 mg BID cohort, day 7, normal two days later
[15] = SAD, 10-fold increase in dose from 200 mg to 2,000 mg

Q: With `C#CC[C@@H](C(=O)N[C@H](/C=C/C(=O)OCC)C[C@@H]1CCNC1=O)n1cccc(NC(=O)c2cc(C)on2)c1=O` [V-7404] as the compound, how does the “deaths or SAEs” value ([1]; SAD study) read?
A: No deaths or SAEs were reported

Q: What about the “participants with moderate TEAEs” value ([1]; SAD, V-7404 group, 1/24 participants) of the same compound?
A: 4.2%

Q: And the “participants with mild treatment-emergent AEs (TEAEs)” value ([1]; SAD, V-7404 group, 4/24 participants)?
A: 16.7%

Q: And the elevated lipase ([1]; SAD, one participant, 1,000 mg cohort, day 2, asymptomatic, normal 3 days later)?
A: 4.0 × the upper limit of normal (U

Q: And the “deaths or SAEs” value ([2]; MAD study)?
A: No deaths or SAEs were reported

Q: And the “proportion of related TEAEs” value ([2]; MAD, 1,000 mg QD)?
A: 12.5%

Q: And the “proportion of related TEAEs” value ([2]; MAD, 2,000 mg BID)?
A: 75%

Q: And the “participants with increased lipase levels (asymptomatic) leading to discontinuation” value ([2]; MAD, 2,000 mg BID cohort, 1/41 participants)?
A: 2.4%

Q: And the “proportion of related TEAEs” value ([2]; MAD, 2,000 mg QD)?
A: 22.2%

Q: And the “participants with moderate TEAEs” value ([2]; MAD, V-7404 group, 2/33 participants)?
A: 6.1%

Q: What about the “participants with mild TEAEs” value ([2]; MAD, V-7404 group, 10/33 participants) of the same compound?
A: 30.3%

Q: What about the amylase [2, 14] of the same compound?
A: 2.7 × ULN

Q: What about the lipase [2, 14] of the same compound?
A: 4.5 × ULN

Q: And the NOAEL [3]?
A: 1500 mg/kg/day

Q: What about the “geometric mean AUC0–inf lower for fed compared to fasted” value (SAD 500 mg) of the same compound?
A: 50%

Q: What about the “geometric mean Cmax lower for fed compared to fasted” value (SAD 500 mg) of the same compound?
A: 66%

Q: What about the “increase of geometric mean AUC0–inf” value [15] of the same compound?
A: 14.2 fold

Q: And the “increase of geometric mean Cmax” value [15]?
A: 7.6 fold

Q: What about the “time of peak of mean plasma concentrations” value (human, in vivo) of the same compound?
A: 0.25 to 0.75 h

Q: And the Cmax (human, in vivo, po, 500 mg)?
A: 366.6 ng/mL

Q: And the EC50 [4]?
A: 0.032 to 0.352 µM

Q: And the “mean and individual trough concentrations” value ([5]; MAD 500 mg QD, days 2, 3, 7, 11 and 14)?
A: BLQ

Q: What about the “mean and individual trough concentrations” value ([5]; MAD 1,000 mg QD, days 2, 3, 7, 11 and 14) of the same compound?
A: BLQ

Q: And the “accumulation (RAUC and RCmax)” value ([5]; MAD 2,000 mg BID, day 14)?
A: no accumulation

Q: And the mean trough concentrations ([5]; MAD 2,000 mg BID, days 2, 3, 7, 11 and 14)?
A: either BLQ or were less than twice the LLOQ of 1.00 ng/ml

Q: And the “time of peak of mean plasma concentration” value ([5]; following the first dose of the day)?
A: 0.50 h

Q: What about the “time of peak of mean plasma concentration” value ([5]; following the second dose of the day, day 1) of the same compound?
A: 0.75 h

Q: And the “time of peak of mean plasma concentration” value ([5]; following the second dose of the day, day 14)?
A: 0.50 h

Q: What about the “RAUC and RCmax, all ratios” value ([5]; MAD QD, day 14, all dose levels) of the same compound?
A: less than 1.5

Q: And the mean trough concentrations ([5]; MAD, 2,000 mg QD)?
A: either BLQ or were less than twice the lower limit of quantification (LLOQ) of 1.00 ng/ml

Q: What about the CL/F ([5]; human, in vivo) of the same compound?
A: 1,987 liters/h

Q: What about the CLss/F ([5]; human, in vivo) of the same compound?
A: 2125 L/h

Q: And the Vz/F ([5]; human, in vivo)?
A: 6542 L

Q: What about the t1/2 ([5]; human, in vivo) of the same compound?
A: 136.2 min

Q: What about the CL/F ([5]; human, in vivo, po, 500 mg) of the same compound?
A: 2,076 liters/h

Q: What about the “CL/F (CLss/F)” value ([5]; human, in vivo, po, 500 mg) of the same compound?
A: 1,656 liters/h

Q: What about the Tmax [6] of the same compound?
A: 15 to 30 min

Q: What about the Vd/F ([6]; Vz/F) of the same compound?
A: 3780 L

Q: And the AUC ([6]; po, 500 mg, AUC (AUC0–tau))?
A: 302 ng·h/mL

Q: What about the Cmax ([6]; po, 500 mg, Cmax) of the same compound?
A: 247 ng/mL

Q: And the Cmax at 14 days ([6]; po, 500 mg, Cmax)?
A: 370 ng/mL

Q: What about the Vd/F at 14 days ([6]; po, 500 mg, Vz/F) of the same compound?
A: 3020 L

Q: What about the Tmax ([6]; po, 500 mg, tmax) of the same compound?
A: 28.8 min

Q: And the Tmax at 14 days ([6]; po, 500 mg, tmax)?
A: 15 min

Q: And the half-life ([6]; t1/2)?
A: 79.2 min

Q: What about the Tmax ([6]; tmax(0–4 h)) of the same compound?
A: 30 min

Q: And the Tmax ([6]; tmax(4–24 h))?
A: 45 min

Q: And the “activity in combination with antiviral capsid inhibitors” value [7]?
A: synergistic activity

Q: And the tolerability [8]?
A: well tolerated with no serious adverse events (SAEs)

Q: And the Tmax [9]?
A: 15 to 37.8 min

Q: And the AUC(0-inf) ([9]; po, 200 mg, AUC (AUC0–inf))?
A: 77.4 ng·h/mL

Q: What about the Cmax ([9]; po, 200 mg, Cmax) of the same compound?
A: 83.3 ng/mL

Q: What about the Vd/F ([9]; po, 200 mg, Vz/F) of the same compound?
A: 1170 L

Q: What about the half-life ([9]; po, 200 mg, t1/2) of the same compound?
A: 18.9 min

Q: What about the Tmax ([9]; po, 200 mg, tmax) of the same compound?
A: 30 min

Q: And the half-life ([9]; t1/2, range across cohorts)?
A: 19.2 to 140 min

Q: And the genotoxicity study results [10]?
A: negative

Q: What about the NOAEL [11] of the same compound?
A: 1500 mg/kg/day

Q: And the EC50 [12]?
A: 379 nM and 0.198 µg/mL

Q: What about the EC50 [13] of the same compound?
A: 5.99 µM
